Experimental data reported in paper PMC4568418, “Identification of natural inhibitors of Entamoeba histolytica cysteine synthase from microbial secondary metabolites” (Frontiers in Microbiology, 2015).
Like-named read-outs stand apart in the source and are kept apart here.

Assays:
EhCS1 = EhCS1 (Entamoeba histolytica, UniProt O15570); experiment: CS inhibitory activity, recombinant EhCS1 (acid-ninhydrin cysteine detection); assay type: biochemical
Protocol: (§1) The E. coli BL21 (DE3) cell introduced pET-EhCS (CS1, CS3) construct was used for protein expression. Each EhCSs protein was expressed by 1 mM isopropyl β-D-thiogalactopyranoside induction for 12 h at 30°C. After induction, the E. coli cell was harvested and re-suspended in the lysis buffer (50 mM Tris-HCl, pH 8.0, and 300 mM NaCl) containing 0.5 mM phenylmethylsulfonyl fluoride. The suspension was sonicated and centrifuged at 24,000 ×g for 30 min at 4°C. The histidine-tagged rEhCS proteins were purified from the supernatant fraction using a Ni^2+-NTA column and tagged proteins were eluted with 100–200 mM imidazole in 50 mM Tris-HCl, pH 8.0, and 300 mM NaCl. […].
(§2) For measurement of CS inhibitory activity, 10 μl of sample solution [dimethylsulfoxide (DMSO)/H2O = 1/1 solution] and 30 μl of reaction mixture, composed of 2 μl of 50 mM O-acetyL-L-serine, 2 μl of 50 mM Na2S, 12.5 μl of 200 mM Tris-HCl (pH 7.5), and 13.5 μl of water, was poured into each well of a flat-bottom 96-well plate. After 10 μl of enzyme solution (containing 0.1 μg of rEhCS1 or rEhCS3 in H2O) was added to each well, plates were incubated for 15 min at 37°C. The final concentrations of reagents in each well are; 2 mM O-acetyL-L-serine, 2 mM Na2S, and 50 mM Tris-HCl. The enzymatic reaction was stopped by adding 50 μl of acetic acid (>99.9%), and subsequently the reaction for cysteine detection was started by adding 50 μl of acid-ninhydrin reagent ([Gaitonde, 1967]). The mixture in each well was transferred to a 96-well PCR plate and heated at 95°C for 10 min. After the plate was cooled on ice, the mixture was transferred into a flat-bottom 96-well plate filled with 100 μl of ethanol (EtOH). Absorbance at 560 nm was measured by spectrophotometer (SH-9000Lab, Corona Electric, Ibaraki, Japan). […] To determine whether the sample interferes the acid-ninhydrin reagent reaction, 10 μl of sample solution, 10 μl of water, and 30 μl of 1 mM cysteine solution (cysteine hydrochloric acid salt in water) were mixed in a well of 96-well microtiter plate, and then 50 μl of acetic acid (>99.9%) and 50 μl of acid-ninhydrin reagent were added. The mixture was treated and measured the absorbance at 560 nm as above mentioned to check the effect of the sample to the color reaction.
(§3) Each 5 μl of DMSO solution (1 mg/ml, final concentration 100 μg/ml) of 316 library compounds and 5 μl of water (total 10 μl of DMSO/H2O = 1/1 solution per well) were poured into each well of a 96-well microtiter plate to screen for CS inhibitors. For screening microbial broths, 10 μl of the individual broth extract samples (50% EtOH solution) were poured into each well of a 96-well microtiter plate and dried up in vacuo. After drying, 10 μl of DMSO/H2O = 1/1 solution was added and dissolved. Samples showing more than 50% inhibitory activity and having no inhibitory activities against acid ninhydrin reaction were selected for further evaluation. The inhibition values were measured in duplicate or triplicate. […]; 2.0 to 250 μg/ml for deacetylkinamycin C, deoxyfrenolicin, nanaomycin A, tetracycline and patulin; 1.5 to 200 μg/ml for naphthacemycin A9; 3.1 to 400 μg/ml for xanthofulvin, terreinol and citromycetin; 0.06 to 200 μg/ml for exophillic acid.

EhCS3 = EhCS3 (Entamoeba histolytica, UniProt Q401L7); experiment: CS inhibitory activity, recombinant EhCS3 (acid-ninhydrin cysteine detection); assay type: biochemical
Protocol: as §1, §2, §3

[1] = test system: E. histolytica clonal strain HM-1:IMSS cl6 trophozoites; experiment: In vitro anti-amebic activity against trophozoites (WST-1 viability); settings: 48 h
Protocol: Trophozoites were harvested in 3–4 days after inoculation of 1/30 to 1/12 of the total culture volume. After the cultures were chilled on ice for 5 min, trophozoites were collected by centrifugation at 500 ×g for 10 min at 4°C and washed twice with BI-S-33 medium. The obtained trophozoites were suspended in BI-S-33 medium and approximately 1 × 10^4 trophozoites in 200 μl of BI-S-33 medium were poured into each well of a 96-well plate and incubated for 2 h. Subsequently, the medium was removed and 200 μl of BI-S-33 medium or cysteine-deprived BI-S-33 medium containing 1% (v/v) penicillin/streptomycin (Life Technologies) together with test compounds (final concentrations; 0.1, 1, 10, 100 μg/ml for kerriamycin B, kerriamycin C, aggreticin, and xanthofulvin; 0.1, 1, 10, 50, 100 μg/ml for the other compounds) was added to each well and incubated under anaerobic conditions for 48 h. After incubation, the medium was removed and 90 μl of pre-warmed Opti-MEM I (Life Technologies) and 10 μl of WST-1 solution (Dojindo) were added to each well. Viability of trophozoites was detected with absorbance at 450 nm (SH-9000Lab, Corona Electric). Cytotoxicity was measured in triplicate. […] Metronidazole (Sigma–Aldrich, MO, USA) was used as positive control.

[2] = Cytotoxicity against MRC-5 cells (WST-8); assay type: cell-based; settings: human fibroblast cells MRC-5, 2 days
Protocol: (§4) Human fibroblast cells, MRC-5, were plated on 96-well flat bottom plates at a density of 1.5 × 10^4 cells/well with 100 μl of MEM medium (Life Technologies, Grand Islands, NY, USA) containing 10% fetal bovine serum (Hana-nesco Bio, Tokyo, Japan) and 1% penicillin-streptomycin (Life Technologies) and incubated at 37°C with 5% CO2 for 2 days. Test compounds in 5 μl of 50% DMSO–H2O and 100 μl of MEM medium were mixed and added to each well. After 2 days cultivation at 37°C with 5% CO2, cell density and morphological changes were observed under a microscope. After observation, 10 μl of WST-8 solution (Dojindo, Kumamoto, Japan) was added to the cells and the plate was incubated at 37°C with 5% CO2 for 2 h. Then, absorbance at 450 nm was measured by spectrophotometer (SH-9000Lab, Corona Electric). Cytotoxicity was measured in duplicate. Staurosporine (our product, in Kitasato Natural Products Library) was used as a positive (cytotoxic) compound. […]; 0.075 to 10 μg/ml for deacetylkinamycin C, deoxyfrenolicin, nanaomycin A, and naphthacemycin A9; 3.1 to 200 μg/ml for tetracycline and patulin; 9.4 to 75 μg/ml for exophillic acid. IC50 values were calculated by the equation described in the reference ([Arita-Morioka et al., 2015]).

semaphorin = test system: semaphorin; parameters: method as in Kumagai et al., 2003; settings: ref Kumagai et al., 2003; cited from earlier work
MRC-5 cells = experiment: Cytotoxicity against MRC-5 cells (WST-8); assay type: cell-based; settings: human fibroblast cells MRC-5, 2 days
Protocol: as §4

[3] = recombinant EhCS1, 15 min at 37°C, 2 mM O-acetyl-L-serine, 2 mM Na2S, read-out: IC50 CS1
[4] = Entamoeba histolytica, read-out: Cytotoxicity against Entamoeba histolytica IC50, Cys (+)
[5] = Entamoeba histolytica, read-out: Cytotoxicity against Entamoeba histolytica IC50, Cys (–)
[6] = recombinant EhCS3, 15 min at 37°C, 2 mM O-acetyl-L-serine, 2 mM Na2S, read-out: IC50 CS3

Chain of EhCS1 (O15570 entry or part of it): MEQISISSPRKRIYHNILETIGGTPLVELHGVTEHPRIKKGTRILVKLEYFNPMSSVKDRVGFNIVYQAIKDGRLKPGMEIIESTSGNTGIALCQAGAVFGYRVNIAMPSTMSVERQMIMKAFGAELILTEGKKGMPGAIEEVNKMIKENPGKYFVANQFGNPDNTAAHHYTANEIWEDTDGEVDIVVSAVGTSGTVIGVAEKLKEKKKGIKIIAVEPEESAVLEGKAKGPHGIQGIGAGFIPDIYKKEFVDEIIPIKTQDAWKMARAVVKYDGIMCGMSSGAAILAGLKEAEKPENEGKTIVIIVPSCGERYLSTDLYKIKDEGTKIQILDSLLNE
Chain of EhCS3 (Q401L7 entry or part of it): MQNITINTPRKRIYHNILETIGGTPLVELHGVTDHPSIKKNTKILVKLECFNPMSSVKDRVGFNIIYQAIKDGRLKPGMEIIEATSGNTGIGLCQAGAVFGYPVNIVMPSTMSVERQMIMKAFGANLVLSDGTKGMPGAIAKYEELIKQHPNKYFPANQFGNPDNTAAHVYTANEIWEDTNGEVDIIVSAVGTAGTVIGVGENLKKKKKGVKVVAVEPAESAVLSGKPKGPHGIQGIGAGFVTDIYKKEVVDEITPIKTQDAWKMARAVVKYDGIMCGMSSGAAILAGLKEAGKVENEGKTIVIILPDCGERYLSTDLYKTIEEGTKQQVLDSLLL

Compound | IC50 (EhCS1; [3]) [µM] | IC50 (EhCS3; [6]) [µM] | IC50 [1, 4] [µM] | IC50 [1, 5] [µM] | IC50 at 2 days [2] [µM] | further results
CCCCCCCCCc1cc(OC(=O)c2c(CCCCCCCCC)cc(O)cc2O[C@@H]2O[C@H](CO)[C@@H](O)[C@H](O)[C@H]2O)cc(O)c1C(=O)O [Exophillic acid] | 24 ± 2.9 |  | > 140 | > 140 | > 100 | inhibition against EhCS3 (EhCS3): no inhibition
O=C1C=C2C(=CCOC2O)O1 (centres unmarked) [Patulin] |  |  | > 650 | 110 ± 12 | 110 ± 4.6 | IC50 (EhCS1): 490 ± 81 µM; IC50 (EhCS3): 470 ± 37 µM
CC(=O)c1c(C)c(/C(O)=C2\COc3cc(O)c(O)c(C(=O)O)c3C2=O)cc2c(=O)c3c(C(=O)O)c(O)c(O)cc3oc12 [Xanthofulvin] | 7.9 ± 1.3 | 110 ± 8.2 | > 170 | > 170 |  | semaphorin inhibitor IC50 (semaphorin): 0.09 µg/mL
COc1cc(C)c(-c2cc(OC)cc3c2C(=O)C2=C(C3=O)C(C)(C)c3cc(O)cc(O)c3C2=O)c(OC)c1 [Naphthacemycin A9] | 75 ± 1.8 | > 490 | > 390 | > 390 | 16 ± 0.6 | inhibition of EhCS3 (in words) (EhCS3): no inhibition
C[C@@]1(O)[C@H](O)c2c(c3c(=O)c4cccc(O)c4c(=O)c=3c2=[N+]=[N-])[C@H](O)[C@H]1O [Deacetylkinamycin C] |  |  | 140 ± 13 | 18 ± 10 |  | IC50 (EhCS1): 21 ± 2.4 µM; IC50 (EhCS3): 22 ± 3.7 µM; IC50 [2]: 2.3 ± 0.1 µM
Kerriamycin B | 0.63 ± 0.07 | 0.31 ± 0.01 |  |  |  | IC50 ([1]; read-out: Cytotoxicity against Entamoeba histolytica IC50, Cys (+), BI-S-33 medium with cysteine, anaerobic): 26 ± 1.5 µM; IC50 ([1]; read-out: Cytotoxicity against Entamoeba histolytica IC50, Cys (–), cysteine-deprived BI-S-33 medium, anaerobic): 23 ± 0.3 µM; IC50 (MRC-5 cells): 21 ± 0.4 µM
CN(C)[C@@H]1C(O)=C(C(N)=O)C(=O)[C@@]2(O)C(O)=C3C(=O)c4c(O)cccc4[C@@](C)(O)[C@H]3C[C@@H]12 [Tetracycline, reference compound] |  |  |  |  | 430 ± 4.3 | IC50 (EhCS1): 170 ± 16 µM; IC50 (EhCS3): 190 ± 9.5 µM

Continued, in another order:

IC50 (EhCS1; [3]) [µM] | IC50 (EhCS3; [6]) [µM] | Compound | IC50 [1, 4] [µM] | IC50 [1, 5] [µM] | IC50 at 2 days [2] [µM] | further results
57 ± 2 | 53 ± 1.1 | CCC[C@H]1O[C@H](CC(=O)O)CC2=C1C(=O)c1c(O)cccc1C2=O [Deoxyfrenolicin] | 1.3 ± 0.04 | 0.5 ± 0.1 | 4.7 ± 0.2 | 
> 1600 | > 1600 | Cc1c(O)cc2c(c1O)CO[C@@]1(CCCO1)C2=O [Terreinol] |  |  |  | 
53 ± 3.9 | 65 ± 4.4 | C[C@@H]1O[C@@H](CC(=O)O)CC2=C1C(=O)c1c(O)cccc1C2=O [Nanaomycin A] | 12 ± 0.4 | 0.8 ± 0.04 | 0.7 ± 0.04 | 
> 1400 | > 1400 | Cc1cc(=O)c2c(o1)-c1c(cc(O)c(O)c1C(=O)O)OC2 [Citromycetin] |  |  |  | 
0.98 ± 0.05 | 0.64 ± 0.1 | C[C@@H]1O[C@@H](O[C@@H]2C[C@H](c3ccc4c(c3O)C(=O)C3=C(C4=O)[C@@]4(O[C@H]5CC[C@H](O)[C@H](C)O5)C(=O)C[C@](C)(O)C[C@@]4(O)C=C3)O[C@H](C)[C@H]2O)CC[C@@H]1O [Aggreticin] | 54 ± 4.8 | 18 ± 0.7 | 23 ± 0.6 | 
